The values that follow come from patent US20230192701A1, “BICYCLIC KINASE INHIBITORS AND USES THEREOF” (iOmx Therapeutics AG, priority 2020, published 2023).

The target in data set [1] is SIK2 (Homo sapiens, UniProt Q9H0K1). In words: radiometric protein kinase assay (33PanQinase Activity Assay), SIK2. The data set is classed as biochemical. The following applies: for IC50: ATP 1.0 μM, substrate RBER-CHKtide; for inhibiting SIK2 compared to PY1: in words. The procedure:
(§1) The IC50s of the compounds against the SIK family of protein-serine/threonine kinases (SIK2 and SIK3) were determined as followed. Briefly, a radiometric protein kinase assay (33PanQinase® Activity Assay) was used for measuring the kinase activity of the two protein kinases. The kinase assays were performed in 96-well FlashPlates™ from PerkinElmer (Boston, Mass., USA) in a 50 uL reaction volume. The reaction cocktail was pipetted in four steps in the following order: • […] (standard buffer/[gamma-33P]-ATP) • 10 uL of ATP solution (in water) • 5 uL of test compound (in 10% DMSO) • 20 uL enzyme/substrate mix
(§2) The following amounts of enzyme and applicable substrate were used per well:
(§3) The reaction cocktails were incubated at 30 °C for 60 minutes. The reaction was stopped with 50 uL of 2% (v/v) H3PO4, plates were aspirated and washed two times with 200 μL 0.9% (w/v) NaCl. Incorporation of 33Pi was determined with a microplate scintillation counter (Microbeta, Wallac). All assays were performed with a BeckmanCoulter/SAGIAN™ Core System.

The target of data set [2] is SIK3 (Homo sapiens, UniProt Q9Y2K2). In words: radiometric protein kinase assay (33PanQinase Activity Assay), SIK3. The following applies: for IC50: ATP 1.0 μM, substrate RBER-CHKtide; for inhibiting SIK3 compared to PY1 / selectivity towards SIK3 over SIK2: in words. The data set is classed as biochemical. The procedure: as §1, §2, §3
Data set [3] concerns MC38 tumour cells. In words: TNF-sensitised cell viability assay (CellTiter-Glo), MC38. The following applies: for IC50: Mus musculus, MC-38, read-out: MC38 IC50 (at 100 ng/ml rMuTNF), 100 ng/ml rMuTNF, 72 h. Type of data set: cell-based, murine. The protocol: (§4) Cell viability of HCT116 tumour cells was measured using the CellTiter-Glo (CTG) luminescent cell viability assay (Promega, Madison, USA) according to the manufacturer's protocol. In short, 1×10^3 HCT116 cells were seeded in a 384-well plate for 24 h and subsequently treated with different concentrations of compounds and 10 ng/ml rHuTNF for 72 h at 37° C. and 5% CO2. After incubation, CTG reagent was added to the wells and cells were lysed for 10 min. Read-out was performed using the Tecan reader with 0.1 sec counting time. TNF-induced cell killing in human PANC1 and murine MC38 tumour cells was measured analogously to the assay in human HCT116 cells, except that for the PANC1 assay 100 ng/ml rHuTNF and for the MC38 assay 100 ng/ml rMuTNF were used.

The subject of data set [4] is HCT116 tumour cells. The data set is described as follows: TNF-sensitised cell viability assay (CellTiter-Glo), HCT116. The data set is classed as cell-based, human. The following applies: for IC50: Homo sapiens, HCT-116, read-out: HCT116 IC50 (at 10 ng/ml rHuTNF), 10 ng/ml rHuTNF, 72 h; for sensitisation of HCT116 tumour cells to the cytotoxic effect of TNF compared to PY1: in words. The protocol: as §4

Data set [5] relates to PANC1 tumour cells. The data set is described as follows: TNF-sensitised cell viability assay (CellTiter-Glo), PANC1. Type of data set: cell-based, human. The following applies: for IC50: Homo sapiens, PANC-1, read-out: PANC IC50 (at 100 ng/ml rHuTNF), 100 ng/ml rHuTNF, 72 h; for sensitisation of PANC tumour cells to the cytotoxic effects of TNF compared to PY1: in words. The protocol: as §4

Data set [6] deals with 335 wild-type protein kinases. In words: single-point inhibition assays, residual activity (ProQinase Kinase Profiler). The following applies: single-point 0.1 uM and 1 uM, 335 kinases. The data set is classed as biochemical. The protocol: Several compounds of Formula (I) described herein were also tested in single-point (0.1 uM and 1 uM) inhibition assays over a diverse set of 335 wild-type protein (ProQinase “Kinase Profiler”; ProQinase, Freiburg, Germany), in which the residual activity of each kinase was determined. […] Secondly, the residual activity of each kinase was compared to other compounds tested (in particular, against the prior art compounds PY1) by use of scatter plots.

SIK2, sequence (Q9H0K1 whole entry): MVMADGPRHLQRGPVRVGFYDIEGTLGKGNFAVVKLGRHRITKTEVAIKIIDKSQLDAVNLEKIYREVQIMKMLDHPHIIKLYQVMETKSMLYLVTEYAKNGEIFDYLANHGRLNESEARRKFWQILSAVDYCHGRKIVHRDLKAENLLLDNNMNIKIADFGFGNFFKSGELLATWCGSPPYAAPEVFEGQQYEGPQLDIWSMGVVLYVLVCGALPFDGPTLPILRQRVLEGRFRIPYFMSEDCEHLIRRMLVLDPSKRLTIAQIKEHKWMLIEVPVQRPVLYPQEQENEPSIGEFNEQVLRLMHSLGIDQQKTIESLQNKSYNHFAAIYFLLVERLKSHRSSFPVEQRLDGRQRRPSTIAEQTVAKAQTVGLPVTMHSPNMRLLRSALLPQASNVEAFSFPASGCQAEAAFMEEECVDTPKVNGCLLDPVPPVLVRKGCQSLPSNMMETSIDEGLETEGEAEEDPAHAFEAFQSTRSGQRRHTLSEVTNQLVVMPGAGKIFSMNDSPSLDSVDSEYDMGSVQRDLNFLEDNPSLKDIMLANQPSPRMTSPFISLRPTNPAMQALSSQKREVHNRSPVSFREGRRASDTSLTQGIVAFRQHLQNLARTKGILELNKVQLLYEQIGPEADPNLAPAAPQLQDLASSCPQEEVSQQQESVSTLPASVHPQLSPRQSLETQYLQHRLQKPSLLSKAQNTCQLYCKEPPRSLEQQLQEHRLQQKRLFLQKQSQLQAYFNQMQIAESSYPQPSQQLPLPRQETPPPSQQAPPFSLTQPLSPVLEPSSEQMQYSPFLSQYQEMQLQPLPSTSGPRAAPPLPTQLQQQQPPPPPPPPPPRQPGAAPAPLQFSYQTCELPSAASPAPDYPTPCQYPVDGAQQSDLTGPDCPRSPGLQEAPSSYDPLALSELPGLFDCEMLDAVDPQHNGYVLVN
SIK3, sequence (Q9Y2K2 whole entry): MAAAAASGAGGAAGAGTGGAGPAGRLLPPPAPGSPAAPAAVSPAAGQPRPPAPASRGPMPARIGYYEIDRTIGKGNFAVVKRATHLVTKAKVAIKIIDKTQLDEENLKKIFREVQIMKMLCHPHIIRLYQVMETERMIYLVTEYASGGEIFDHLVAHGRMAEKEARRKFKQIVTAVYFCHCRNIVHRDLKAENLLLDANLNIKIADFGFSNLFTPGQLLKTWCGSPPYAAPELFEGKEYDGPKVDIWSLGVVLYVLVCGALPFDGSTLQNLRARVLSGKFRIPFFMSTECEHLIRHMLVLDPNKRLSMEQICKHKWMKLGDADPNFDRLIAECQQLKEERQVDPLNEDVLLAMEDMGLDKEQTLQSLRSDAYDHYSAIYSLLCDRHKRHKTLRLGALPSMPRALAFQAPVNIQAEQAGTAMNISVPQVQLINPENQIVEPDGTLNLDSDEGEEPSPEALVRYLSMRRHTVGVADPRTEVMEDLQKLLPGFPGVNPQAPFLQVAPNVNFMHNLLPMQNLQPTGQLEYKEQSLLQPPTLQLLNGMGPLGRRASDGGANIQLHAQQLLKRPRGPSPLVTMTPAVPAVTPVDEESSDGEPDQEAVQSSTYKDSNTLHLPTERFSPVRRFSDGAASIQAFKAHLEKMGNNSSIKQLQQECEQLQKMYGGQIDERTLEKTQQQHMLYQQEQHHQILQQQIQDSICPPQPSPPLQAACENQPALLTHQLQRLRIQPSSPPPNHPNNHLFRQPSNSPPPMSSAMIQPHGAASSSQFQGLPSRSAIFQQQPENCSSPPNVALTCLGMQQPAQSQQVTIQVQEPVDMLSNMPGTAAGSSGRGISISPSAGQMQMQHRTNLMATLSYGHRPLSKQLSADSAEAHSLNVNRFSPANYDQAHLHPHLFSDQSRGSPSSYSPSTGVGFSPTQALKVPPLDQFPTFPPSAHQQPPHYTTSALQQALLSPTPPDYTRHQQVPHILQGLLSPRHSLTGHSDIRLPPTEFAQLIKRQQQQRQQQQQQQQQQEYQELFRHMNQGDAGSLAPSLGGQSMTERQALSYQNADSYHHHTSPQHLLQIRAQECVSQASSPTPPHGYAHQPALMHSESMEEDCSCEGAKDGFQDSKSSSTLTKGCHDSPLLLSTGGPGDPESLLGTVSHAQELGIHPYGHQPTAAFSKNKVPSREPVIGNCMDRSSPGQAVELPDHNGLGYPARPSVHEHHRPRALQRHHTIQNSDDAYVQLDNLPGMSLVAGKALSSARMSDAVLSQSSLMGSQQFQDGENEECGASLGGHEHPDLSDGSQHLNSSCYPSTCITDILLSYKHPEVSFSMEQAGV

As to `COc1ccc(N2C(=O)N(c3c(C)nn(C)c3C)Cc3cnc(Nc4ccc(C5CCN(C)CC5)cc4OC)nc32)nc1` [AA4, 7-((2-methoxy-4-(l-methylpiperidin-4-yl)phenyl)amino)-1-(5-methoxypyridin-2-yl)-3-(1,3,5-trimethyl-lH-pyrazol-4-yl)-3,4-dihydropyrimido[4,5-d]pyrimidin-2(1H)-one], the IC50 in data set [1] was 5000 to 10000 nM; in data set [2], over 10000 nM.
`COc1ccc(N2C(=O)N(c3c(CF)csc3Cl)Cc3cnc(Nc4ccc(C5CCN(C)CC5)cc4OC)nc32)nc1` [AA7, 3-(2-chloro-4-(fluoromethyl)thiophen-3-yl)-7-((2-methoxy-4-(l-methylpiperidin-4-yl)phenyl)amino)-1-(5-methoxypyridin-2-yl)-3,4-dihydropyrimido[4,5-d]pyrimidin-2(1H)-one]: the IC50 in data set [1] is 50 to 100 nM; in data set [3], 0.1 to 0.5 µM; in data set [2] it was 100 to 200 nM; in data set [4] it was under 0.1 µM; in data set [5], 0.1 to 0.5 µM. In addition, the “sensitisation of MC38 tumour cells to the cytotoxic effect of TNF” value in data set [3] (in words) is given as “surprisingly potent at sensitising cells to the cytotoxic effect of TNF”. In addition, the “sensitisation of HCT116 tumour cells to the cytotoxic effect of TNF compared to PY1” value in data set [4] is given as “much stronger effect compared to the prior art compound PY1”. In addition, in data set [5], the “sensitisation of PANC tumour cells to the cytotoxic effects of TNF compared to PY1” value is listed as “stronger effect than PY1”.
As to `COc1ccc(N2C(=O)N(c3c(CF)csc3Cl)Cc3cnc(Nc4ccc(C5CC(C)N(C)C(C)C5)cc4)nc32)nc1` (stereo not drawn) [AA8, 3-(2-chloro-4-(fluoromethyl)thiophen-3-yl)-1-(5-methoxypyridin-2-yl)-7-((4-(l,2,6-trimethylpiperidin-4-yl)phenyl)amino)-3,4-dihydropyrimido[4,5-d]pyrimidin-2(lH)-one], in data set [1], the IC50 is under 50 nM; the “inhibiting SIK2 compared to PY1” value is “superior in inhibiting SIK2 and SIK3 compared to PY1”. The IC50 in data set [3] was 0.5 to 1 µM. Also, in data set [2], the IC50 was under 50 nM; the “inhibiting SIK3 compared to PY1” value is “superior in inhibiting SIK2 and SIK3 compared to PY1”. In addition, in data set [4], the IC50 is under 0.1 µM and the “sensitisation of HCT116 tumour cells to the cytotoxic effect of TNF compared to PY1” value is on record as “much stronger effect compared to the prior art compound PY1”. Further, in data set [5], the IC50 lay in the range of 0.1 to 0.5 µM and the “sensitisation of PANC tumour cells to the cytotoxic effects of TNF compared to PY1” value is “stronger effect than PY1”.
For `COc1ccc(N2C(=O)N(c3c(CF)csc3Cl)Cc3cnc(Nc4ccc(C5CCN(C)C(C)C5)cc4)nc32)nc1` (stereo not drawn) [AA9, 3-(2-chloro-4-(fluoromethyl)thiophen-3-yl)-7-((4-(l,2-dimethylpiperidin-4-yl)phenyl)amino)-1-(5-methoxypyridin-2-yl)-3,4-dihydropyrimido[4,5-d]pyrimidin-2(1H)-one], the IC50 in data set [1] was under 50 nM; in data set [3] it was 0.5 to 1 µM; in data set [2], under 50 nM; in data set [4], under 0.1 µM; in data set [5], 0.5 to 1 µM. The “inhibiting SIK2 compared to PY1” value in data set [1] was “superior in inhibiting SIK2 and SIK3 compared to PY1”. Also, the “inhibiting SIK3 compared to PY1” value in data set [2] is “superior in inhibiting SIK2 and SIK3 compared to PY1”. For the same compound, in data set [4], the “sensitisation of HCT116 tumour cells to the cytotoxic effect of TNF compared to PY1” value was “much stronger effect compared to the prior art compound PY1”.
Turning to `COc1ccc(N2C(=O)N(c3c(CF)csc3Cl)Cc3cnc(Nc4ccc(C5CCN(C)CC5)cc4OC)nc32)cc1` [AA10, 3-(2-chloro-4-(fluoromethyl)thiophen-3-yl)-7-((2-methoxy-4-(1-methylpiperidin-4-yl)phenyl)amino)-1-(4-methoxyphenyl)-3,4-dihydropyrimido[4,5-d]pyrimidin-2(1H)-one], the IC50 lay in the range of 50 to 100 nM in data set [1]; 1 to 1.5 µM in data set [3]; 100 to 200 nM in data set [2]; 1 to 1.5 µM in data set [4]; 1 to 1.5 µM in data set [5].
Regarding `COc1cc(C2CCN(C)CC2)ccc1Nc1ncc2c(n1)N(C)C(=O)N(c1c(CF)csc1Cl)C2` [AA11, 3-(2-chloro-4-(fluoromethyl)thiophen-3-yl)-7-((2-methoxy-4-(1-methylpiperidin-4-yl)phenyl)amino)-1-methyl-3,4-dihydropyrimido[4,5-d]pyrimidin-2(1H)-one], the IC50 in data set [1] is 100 to 200 nM; in data set [3], 1 to 1.5 µM; in data set [2], under 50 nM; in data set [4] it was over 1.5 µM; in data set [5], over 1.5 µM. The “selectivity towards SIK3 over SIK2” value in data set [2] was “increased selectively towards SIK3 over SIK2”. Further, the “kinases inhibited less strongly than by PY1” value in data set [6] was “BMX, TEC and in particular BTK”. For the same compound, in data set [6], the “kinases inhibited more strongly than by PY1” value was “BRAF, NEK2, PRK2, PKC, and in particular KIT, RIPK2, ABL2 and PDGF-alpha”. For the same compound, the “overall kinase profile compared to prior art compound PY1” value in data set [6] is “substantially different profile of inhibition of the kinases compared to the prior art compound PY1”.
As to `COCCN1C(=O)N(c2c(CF)csc2Cl)Cc2cnc(Nc3ccc(C4CCN(C)CC4)cc3OC)nc21` [AA12, 3-(2-chloro-4-(fluoromethyl)thiophen-3-yl)-7-((2-methoxy-4-(1-methylpiperidin-4-yl)phenyl)amino)-1-(2-methoxyethyl)-3,4-dihydropyrimido[4,5-d]pyrimidin-2(1H)-one], the IC50 in data set [1] was under 50 nM; in data set [3], 1 to 1.5 µM; in data set [2] it was under 50 nM; in data set [4], over 1.5 µM. Moreover, the “inhibiting SIK2 compared to PY1” value in data set [1] is “superior in inhibiting SIK2 and SIK3 compared to PY1”. In data set [2], the “inhibiting SIK3 compared to PY1” value is “superior in inhibiting SIK2 and SIK3 compared to PY1”. Also, in data set [2], the “selectivity towards SIK3 over SIK2” value is given as “increased selectively towards SIK3 over SIK2”.
In the case of `COc1ccc(N2C(=O)N(c3c(C(F)F)csc3Cl)Cc3cnc(Nc4ccc(C5CCN(C)CC5)cc4OC)nc32)nc1` [AA13, 3-(2-chloro-4-(difluoromethyl)thiophen-3-yl)-7-((2-methoxy-4-(1-methylpiperidin-4-yl)phenyl)amino)-1-(5-methoxypyridin-2-yl)-3,4-dihydropyrimido[4,5-d]pyrimidin-2(1H)-one], the IC50 in data set [1] is 100 to 200 nM; in data set [3], 1 to 1.5 µM; in data set [2], 100 to 200 nM; in data set [4] it was over 1.5 µM; in data set [5], over 1.5 µM. The “selectivity towards SIK3 over SIK2” value in data set [2] was “increased selectively towards SIK3 over SIK2”.
